Measurements reported in article PMC9908032, “Novel nitroxide-bile acid conjugates inform substrate requirements for human bile acid transporters” (European journal of pharmaceutical sciences : official …, 2022).

Experiments:
[1] = molecular target: T1, Na+/taurocholate cotransporting polypeptide (hNTCP) (Homo sapiens, UniProt Q14973); assay: inhibition of [3H]-taurocholate uptake in transiently transfected hNTCP-HEK293T cells; type: cell-based
T1 construct: gene SLC10A1
T1 sequence (Q14973 1-349): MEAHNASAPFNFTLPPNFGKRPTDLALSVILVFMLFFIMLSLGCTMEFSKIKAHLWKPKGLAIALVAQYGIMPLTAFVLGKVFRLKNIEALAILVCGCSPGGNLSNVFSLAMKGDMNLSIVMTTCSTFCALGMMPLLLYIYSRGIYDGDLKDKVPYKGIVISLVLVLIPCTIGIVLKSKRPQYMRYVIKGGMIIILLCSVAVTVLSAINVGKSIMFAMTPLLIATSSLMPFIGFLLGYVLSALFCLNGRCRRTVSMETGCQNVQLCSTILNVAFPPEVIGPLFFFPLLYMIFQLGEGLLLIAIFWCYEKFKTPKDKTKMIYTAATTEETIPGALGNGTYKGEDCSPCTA

[2] = molecular target: T2, apical sodium dependent bile acid transporter (hASBT) (Homo sapiens, UniProt Q12908); assay: inhibition of [3H]-taurocholate uptake in stably transfected hASBT-MDCK cells; type: cell-based
T2 construct: gene SLC10A2
T2 sequence (Q12908 1-348): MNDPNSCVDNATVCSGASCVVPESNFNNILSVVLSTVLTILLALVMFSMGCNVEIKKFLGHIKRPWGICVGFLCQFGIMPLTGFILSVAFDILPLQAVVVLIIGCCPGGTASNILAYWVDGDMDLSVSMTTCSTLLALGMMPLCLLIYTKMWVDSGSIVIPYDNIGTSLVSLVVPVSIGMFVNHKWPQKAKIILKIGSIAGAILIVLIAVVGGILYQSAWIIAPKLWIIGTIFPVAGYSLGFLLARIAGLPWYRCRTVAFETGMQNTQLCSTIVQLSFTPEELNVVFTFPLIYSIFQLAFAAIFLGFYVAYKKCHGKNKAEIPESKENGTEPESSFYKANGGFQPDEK

[3] = substrate: C[C@H](CCC(=O)NCCS(=O)(=O)O)[C@H]1CC[C@H]2[C@@H]3[C@H](O)C[C@@H]4C[C@H](O)CC[C@]4(C)[C@H]3C[C@H](O)[C@]12C; assay: cells, lysate or membranes; conditions: Na+

C[C@H](CCC(=O)NCC(=O)O)[C@H]1CC[C@H]2[C@@H]3[C@H](O)C[C@@H]4C[C@H](O)CC[C@]4(C)[C@H]3C[C@H](O)[C@]12C [GCA, glycocholic acid]
Ki [1]: 2.47 ± 0.43 µM | Ki [2]: 8.28 ± 0.57 µM

B1: Na+/taurocholate cotransporting polypeptide (hNTCP) (Homo sapiens) (protein)
chain: MEAHNASAPFNFTLPPNFGKRPTDLALSVILVFMLFFIMLSLGCTMEFSKIKAHLWKPKGLAIALVAQYGIMPLTAFVLGKVFRLKNIEALAILVCGCSPGGNLSNVFSLAMKGDMNLSIVMTTCSTFCALGMMPLLLYIYSRGIYDGDLKDKVPYKGIVISLVLVLIPCTIGIVLKSKRPQYMRYVIKGGMIIILLCSVAVTVLSAINVGKSIMFAMTPLLIATSSLMPFIGFLLGYVLSALFCLNGRCRRTVSMETGCQNVQLCSTILNVAFPPEVIGPLFFFPLLYMIFQLGEGLLLIAIFWCYEKFKTPKDKTKMIYTAATTEETIPGALGNGTYKGEDCSPCTA
Km [3]: 2.14 ± 1.55 µM
